Drawing on patent publication US12570642B2, “GLP-IR modulating compounds” (Gilead Sciences, Inc., priority 2021, dated 2026), this text covers EC50 for 19 compounds.

Molecules are shown by their SMILES.

For this assay, the target named is GLP-1R (Homo sapiens, UniProt P43220). As to the kind of experiment: GLP-1R Activation - cAMP Assay. Format: cell-based. As to conditions: each compound run on one of the two cAMP assays (Assay 1 or Assay 2, not specified). The method in brief: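 cAMP rise read by HTRF after 30 min agonist exposure (10-point titration, 37 °C) in HBSS/20 mM Hepes/0.1% BSA, following 1 h pre-incubation. Cells: stable GLP-1R CHO line, 1,000/well, seeded overnight. Sigmoidal fit of response vs log concentration gives EC50.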
Sequence of GLP-1R (P43220 24-463): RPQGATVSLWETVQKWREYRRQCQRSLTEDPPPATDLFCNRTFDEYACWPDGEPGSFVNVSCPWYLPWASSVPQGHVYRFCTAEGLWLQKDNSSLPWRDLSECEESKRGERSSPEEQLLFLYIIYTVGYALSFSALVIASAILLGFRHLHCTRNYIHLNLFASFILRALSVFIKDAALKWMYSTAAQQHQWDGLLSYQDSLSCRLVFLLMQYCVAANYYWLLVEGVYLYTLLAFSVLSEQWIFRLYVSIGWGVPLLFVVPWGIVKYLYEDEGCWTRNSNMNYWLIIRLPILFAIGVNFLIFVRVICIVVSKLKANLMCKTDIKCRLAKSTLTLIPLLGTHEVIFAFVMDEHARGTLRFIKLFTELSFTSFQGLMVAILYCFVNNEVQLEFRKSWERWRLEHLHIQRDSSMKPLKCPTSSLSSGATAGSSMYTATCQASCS

Where [1] appears, read: cAMP increase in CHO cells stably expressing GLP-1R.

As to `CC1(C)COC[C@H]1n1c(Cc2ccc(-c3ccc(F)c(OCc4ccc(C#N)cc4)n3)cc2F)nc2ccc(C(=O)O)cc21` [Example 370, (S)-2-(4-(6-((4-cyanobenzyl)oxy)-5-fluoropyridin-2-yl)-2-fluorobenzyl)-1-(4,4-dimethyltetrahydrofuran-3-yl)-1H-benzo[d]imidazole-6-carboxylic acid], a half-maximal response under setting [1] (EC50) required 42 pM. Still for that read-out and setting: to `COCCn1c(Cc2cc(F)c(-c3ccc(F)c(OCc4ccc(C#N)cc4)n3)cc2F)nc2ccc(C(=O)O)c(F)c21` [Example 366, 2-(4-(6-((4-cyanobenzyl)oxy)-5-fluoropyridin-2-yl)-2,5-difluorobenzyl)-7-fluoro-1-(2-methoxyethyl)-1H-benzo[d]imidazole-6-carboxylic acid] belongs 1170 pM; to `CC1(C)COC[C@H]1n1c(Cc2cc(F)c(-c3ccc(F)c(OCc4ccc(Cl)cc4F)n3)cc2F)nc2c(F)cc(C(=O)O)cc21` [Example 495, (S)-2-(4-(6-((4-chloro-2-fluorobenzyl)oxy)-5-fluoropyridin-2-yl)-2,5-difluorobenzyl)-1-(4,4-dimethyltetrahydrofuran-3-yl)-4-fluoro-1H-benzo[d]imidazole-6-carboxylic acid], 144 pM; to `CO[C@H](C)Cn1c(Cc2cc(F)c(-c3ccc(F)c(OCc4ccc(C#N)cc4F)n3)cc2F)nc2c(F)cc(C(=O)O)cc21` [Example 368, (R)-2-(4-(6-((4-cyano-2-fluorobenzyl)oxy)-5-fluoropyridin-2-yl)-2,5-difluorobenzyl)-4-fluoro-1-(2-methoxypropyl)-1H-benzo[d]imidazole-6-carboxylic acid], 562 pM. Turning to `COCCn1c(Cc2cc(F)c(-c3ccnc(OCc4cnc(-n5ccnn5)cc4Cl)n3)cc2F)nc2ccc(C(=O)O)cc21` [Example 389, 2-(4-(2-((4-chloro-6-(1H-1,2,3-triazol-1-yl)pyridin-3-yl)methoxy)pyrimidin-4-yl)-2,5-difluorobenzyl)-1-(2-methoxyethyl)-1H-benzo[d]imidazole-6-carboxylic acid], the EC50 under setting [1] was found to be 550 pM. Same read-out and setting: with `CO[C@H]1CCOC[C@H]1n1c(Cc2cc(F)c(-c3cccc(OCc4ccc(C#N)cc4F)n3)cc2F)nc2ccc(C(=O)O)cc21` (single isomer, unassigned) [Example 409] the figure was 291 pM; with `N#Cc1ccc(COc2cccc(-c3cc(F)c(Cc4nc5ccc(C(=O)O)cc5n4[C@@H]4C[C@@H]4C(F)F)cc3F)n2)c(F)c1` [Example 4, 2-(4-(6-((4-cyano-2-fluorobenzyl)oxy)pyridin-2-yl)-2,5-difluorobenzyl)-1-((1R,2S)-2-(difluoromethyl)cyclopropyl)-1H-benzo[d]imidazole-6-carboxylic acid], 2650 pM. Still for that read-out and setting: to `COCCn1c(Cc2cc(F)c(-c3cccc(OCc4ccc(-c5cnn(CC(F)F)c5)cc4F)n3)cc2F)nc2ccc(C(=O)O)cc21` [Example 114] belongs 5990 pM; to `CC1(C)COC[C@H]1n1c(Cc2cc(F)c(-c3cccc(OCc4ccc(C(F)(F)F)cc4F)n3)cc2F)nc2c(F)cc(C(=O)O)cc21` [Example 169, (S)-2-(2,5-difluoro-4-(6-((2-fluoro-4-(trifluoromethyl)benzyl)oxy)pyridin-2-yl)benzyl)-1-(4,4-dimethyltetrahydrofuran-3-yl)-4-fluoro-1H-benzo[d]imidazole-6-carboxylic Acid], 171 pM; to `CC1(C)COC[C@H]1n1c(Cc2cc(F)c(-c3cccc(OCc4cnc(-n5ccnn5)cc4C(F)(F)F)n3)cc2F)nc2ccc(C(=O)O)cc21` [Example 414, (S)-2-(4-(6-((6-(1H-1,2,3-triazol-1-yl)-4-(trifluoromethyl)pyridin-3-yl)methoxy)pyridin-2-yl)-2,5-difluorobenzyl)-1-(4,4-dimethyltetrahydrofuran-3-yl)-1H-benzo[d]imidazole-6-carboxylic acid], 261 pM. Under setting [1], `Cn1nnc2ccc(COc3cccc(-c4cc(F)c(Cc5nc6ccc(C(=O)O)cc6n5C[C@@H]5CCO5)cc4F)n3)cc21` [Example 525, (S)-2-(2,5-difluoro-4-(6-((1-methyl-1H-benzo[d][1,2,3]triazol-6-yl)methoxy)pyridin-2-yl)benzyl)-1-(oxetan-2-ylmethyl)-1H-benzo[d]imidazole-6-carboxylic acid] showed an EC50 of 429 pM. Same read-out and setting: with `CC(C)O[C@H]1COC[C@H]1n1c(Cc2cc(F)c(-c3cccc(OCc4ccc(Cl)cc4F)n3)cc2F)nc2ccc(C(=O)O)cc21` [Example 570, 2-(4-(6-((4-chloro-2-fluorobenzyl)oxy)pyridin-2-yl)-2,5-difluorobenzyl)-1-((3R,4R)-4-isopropoxytetrahydrofuran-3-yl)-1H-benzo[d]imidazole-6-carboxylic acid] the figure was 955 pM; with `COCCn1c(Cc2cc(F)c(-c3cc(Cl)cc(OCc4ccc(C#N)cc4F)n3)cc2F)nc2ccc(C(=O)O)cc21` [Example 42, 2-(4-(4-chloro-6-((4-cyano-2-fluorobenzyl)oxy)pyridin-2-yl)-2,5-difluorobenzyl)-1-(2-methoxyethyl)-1H-benzo[d]imidazole-6-carboxylic Acid], 4250 pM; with `N#Cc1ccc(COc2cccc(-c3cc(F)c(Cc4nc5ccc(C(=O)O)cc5n4[C@@H]4CO[C@H]5OCC[C@H]54)cc3F)n2)c(F)c1` [Example 19], 600 pM.

Regarding `CO[C@H](C)[C@@H](C)n1c(Cc2cc(F)c(-c3cccc(OCc4ccc(Cl)cc4F)n3)cc2F)nc2ccc(C(=O)O)cc21` [Example 565, 2-(4-(6-((4-chloro-2-fluorobenzyl)oxy)pyridin-2-yl)-2,5-difluorobenzyl)-1-((2R,3R)-3-methoxybutan-2-yl)-1H-benzo[d]imidazole-6-carboxylic acid], the EC50 under setting [1] was 194 pM. In the case of `COCCn1c(C(F)(F)c2cc(F)c(-c3cccc(OCc4ccc(C#N)cc4F)n3)cc2F)nc2ccc(C(=O)O)cc21` [Example 52], under setting [1], a half-maximal effect (EC50) was put at 21300 pM. Under “[…]”, `CO[C@@H]1CN(S(C)(=O)=O)C[C@@H]1n1c(Cc2cc(F)c(-c3cccc(OCc4ccc(C#N)cc4F)n3)cc2F)nc2ccc(C(=O)O)cc21` [Example 89, 2-(4-(6-((4-cyano-2-fluorobenzyl)oxy)pyridin-2-yl)-2,5-difluorobenzyl)-1-((3S,4R)-4-methoxy-1-(methylsulfonyl)pyrrolidin-3-yl)-1H-benzo[d]imidazole-6-carboxylic Acid] had an EC50 of 15300 pM.

On to `CC1(C)COC[C@H]1n1c(Cc2cc(F)c(-c3ccnc(OCc4ccc(Cl)cc4)n3)cc2F)nc2c(F)cc(C(=O)O)cc21` [Example 230, (S)-2-(4-(2-((4-chlorobenzyl)oxy)pyrimidin-4-yl)-2,5-difluorobenzyl)-1-(4,4-dimethyltetrahydrofuran-3-yl)-4-fluoro-1H-benzo[d]imidazole-6-carboxylic acid], for which, under setting [1], a half-maximal effect (EC50) was put at 34 pM. Same read-out and setting: with `CC1(C)COC[C@H]1n1c(Cc2cc(F)c(-c3ccc(F)c(OCc4c(F)cccc4F)n3)cc2F)nc2ccc(C(=O)O)cc21` [Example 475, (S)-2-(4-(6-((2,6-difluorobenzyl)oxy)-5-fluoropyridin-2-yl)-2,5-difluorobenzyl)-1-(4,4-dimethyltetrahydrofuran-3-yl)-1H-benzo[d]imidazole-6-carboxylic acid] the figure was 601 pM.
